Molecules are shown by their SMILES.

The assay addresses T1, Membrane-bound ghrelin O-acyltransferase MBOAT4 (Homo sapiens) (UniProt Q96T53).
T1 sequence (whole entry): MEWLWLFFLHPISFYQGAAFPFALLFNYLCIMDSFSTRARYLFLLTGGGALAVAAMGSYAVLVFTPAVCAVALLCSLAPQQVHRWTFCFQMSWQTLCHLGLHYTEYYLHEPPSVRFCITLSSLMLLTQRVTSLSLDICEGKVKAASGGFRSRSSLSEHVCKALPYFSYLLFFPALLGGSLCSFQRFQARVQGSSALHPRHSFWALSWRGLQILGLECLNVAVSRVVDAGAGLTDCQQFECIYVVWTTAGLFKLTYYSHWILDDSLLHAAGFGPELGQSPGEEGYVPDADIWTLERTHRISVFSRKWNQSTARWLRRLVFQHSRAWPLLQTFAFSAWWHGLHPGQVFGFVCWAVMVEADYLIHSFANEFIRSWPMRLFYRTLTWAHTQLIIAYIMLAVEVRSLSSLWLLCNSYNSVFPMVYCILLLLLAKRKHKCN
Nature of the assay: Inhibition of human GOAT expressed in baculovirus infected Sf9 cells at 10 uM using octanoyl-CoA and ghrelin-biotin as substrate preincubated for 20 mins followed by substrate addition and measured after = > 1 hr by HTRF assay relative to control. Conditions: time hrs >=1.
With `COC(=O)Cc1csc2c(F)c(OCc3cc(C(F)(F)F)nn3C)cc(Cl)c12`, the inhibition is 98.9%.

With `Cn1nc(C(F)(F)F)cc1COc1cc(Cl)c2c(CC(=O)O)csc2c1`, the inhibition came out at 105%. For the compound `Cc1ccc(COc2cc(C)c3c(c2C)OCC3CC(=O)O)c(C)n1` (stereo not given), the inhibition was 94.8%. On to `CC(=O)NCC[C@@H]1COc2cc(OCc3ccc(Cl)cc3Cl)ccc21`, for which the inhibition came to 69%. In the case of `O=C(O)Cc1csc2cc(OCc3ccc(Cl)cc3Cl)ccc12`, the inhibition was determined as 99.2%. To `O=C(O)C[C@H]1COc2cc(OCc3ccc(Cl)cc3Cl)ccc21` belongs 86%; to `Cc1nc(C(F)(F)F)ccc1COc1cc(C)c2c(CC(=O)O)csc2c1F`, 106%; to `O=C(O)CC1CSc2cc(OCc3ccc(Cl)cc3Cl)ccc21` (stereo not given), 99%. `COC(=O)Cc1csc2cc(OCc3cc(C(F)(F)F)nn3C)cc(Cl)c12`: the inhibition was 100%. Turning to `Cc1cc(OCc2ccc(Cl)cc2Cl)cc2scc(CC(=O)O)c12`, the inhibition was found to be 103%. To `CCS(=O)(=O)NC(=O)Cc1csc2cc(OCc3ccc(Cl)cc3Cl)ccc12` belongs 83.2%.

Turning to `Cc1ccc(CCc2ccc3c(CC(=O)O)csc3c2)c(C)n1`, the inhibition was determined as 97.3%. In the case of `COC(=O)Cc1csc2cc(OCc3cc(C)nn3C)cc(C)c12`, the inhibition amounted to 94.7%. The same measure for `Cc1ccc(COc2cc(C(F)(F)F)c3c(CC(=O)O)csc3c2)c(C)n1`: 103%; for `COC(=O)Cc1coc2c(C)c(OCc3ccc(Cl)cc3Cl)cc(C)c12`: 68.7%; for `Cc1nc(C(F)(F)F)ccc1COc1cc(Cl)c2c(CC(=O)O)csc2c1F`: 106%. `Cc1ccc(COc2cc(Cl)c3c(CC(=O)O)csc3c2)c(C)n1`: the inhibition came out at 107%. Consider `COC(=O)Cc1csc2cc(OCc3ccc(C(F)(F)F)nc3C)cc(F)c12`, for which the inhibition was found to be 94.9%.

With `O=C(O)CC1CS(=O)(=O)c2cc(OCc3ccc(Cl)cc3Cl)ccc21` (stereo not given), the inhibition was found to be 79%. In the case of `O=C(O)Cc1coc2c(Cl)c(OCc3ccc(Cl)cc3Cl)ccc12`, the inhibition was 100%.

As for `O=C(O)Cc1csc2cc(S(=O)(=O)Cc3ccc(Cl)cc3Cl)ccc12`, the inhibition is 83%.

Regarding `Cc1nc(C(F)(F)F)ccc1COc1ccc2c(CC(=O)O)csc2c1`, the inhibition is 93.1%. Consider `Cn1nc(C(F)(F)F)cc1COc1cc(F)c2c(CC(=O)O)csc2c1`, for which the inhibition is 104%. Consider `Cn1nc(C(F)(F)F)cc1COc1ccc2c(CC(=O)O)csc2c1`, for which the inhibition was 98.2%. `Cn1nc(C(F)(F)F)cc1COc1cc(Cl)c2c(CC(=O)O)csc2c1F`: the inhibition amounted to 107%. For the compound `O=C(O)CNC(=O)Cc1csc2cc(OCc3ccc(Cl)cc3Cl)ccc12`, the inhibition worked out at 95%.

In the case of `Cc1ccc(/C=C/c2ccc3c(CC(=O)O)csc3c2)c(C)n1`, the inhibition stood at 83.1%. To `CCC(=O)NCC[C@@H]1COc2cc(OCc3ccc(Cl)cc3Cl)ccc21` belongs 59%; to `Cc1cc(OCc2cc(C(F)(F)F)nn2C)c(F)c2scc(CC(=O)O)c12`, 104%; to `Cc1nc(C(F)(F)F)ccc1COc1cc(C)c2c(CC(=O)O)csc2c1C`, 105%. For the compound `Cc1nc(C(F)(F)F)ncc1COc1ccc2c(CC(=O)O)csc2c1`, the inhibition worked out at 97.3%. The same measure for `CCOC(=O)Cc1csc2cc(OCc3ccc(C)nc3C)ccc12`: 92.8%; for `Cc1nc(C(F)(F)F)ccc1COc1cc(C)c2c(CC(=O)O)csc2c1`: 99.2%.

Regarding `COC(=O)Cc1coc2c(C)c(OCc3ccc(C)nc3C)cc(C)c12`, the inhibition was 92.7%. To `CCOC(=O)Cc1csc2cc(OCc3cc(C(F)(F)F)nn3C)ccc12` belongs 88.9%; to `Cc1c(OCc2ccc(Cl)cc2Cl)cc(C)c2c(CC(=O)O)coc12`, 103%. The same measure for `COC(=O)Cc1csc2cc(OCc3cc(C(F)(F)F)nn3C)cc(C)c12`: 95.2%; for `Cc1cc(OCc2cc(C(F)(F)F)nn2C)cc2scc(CC(=O)O)c12`: 104%; for `COC(=O)Cc1csc2cc(OCc3cc(C)nn3C)cc(Cl)c12`: 97.4%.

For the compound `CCOC(=O)CNC(=O)Cc1csc2cc(OCc3ccc(Cl)cc3Cl)ccc12`, the inhibition stood at 56%. The same measure for `Cc1cc(COc2cc(Cl)c3c(CC(=O)O)csc3c2)n(C)n1`: 105%.

As for `Cc1nc(C(F)(F)F)ccc1COc1cc(Cl)c2c(CC(=O)O)csc2c1Cl`, the inhibition was found to be 106%. To `COC(=O)Cc1csc2c(F)c(OCc3cc(C(F)(F)F)nn3C)cc(C)c12` belongs 96.1%; to `O=C(O)Cc1csc2cc([S+]([O-])Cc3ccc(Cl)cc3Cl)ccc12` (stereo not given), 67%. The same measure for `COC(=O)Cc1csc2cc(OCc3ccc(Cl)cc3Cl)cc(C)c12`: 84.4%; for `COC(=O)Cc1csc2c(F)c(OCc3ccc(C(F)(F)F)nc3C)cc(C)c12`: 94%; for `COC(=O)Cc1csc2cc(OCc3ccc(C)nc3C)cc(Cl)c12`: 96.5%. The same measure for `COC(=O)Cc1csc2c(Cl)c(OCc3cc(C(F)(F)F)nn3C)cc(Cl)c12`: 92.7%; for `Cc1nc(C(F)(F)F)ccc1COc1cc(F)c2c(CC(=O)O)csc2c1`: 102%; for `Cc1sc2cc(OCc3cc(C(F)(F)F)nn3C)cc(Cl)c2c1CC(=O)O`: 106%. `Cc1nc(C(F)(F)F)ccc1COc1cc(Cl)c2c(CC(=O)O)c(C)sc2c1`: the inhibition was determined as 103%. To `O=C(O)Cc1csc2cc(SCc3ccc(Cl)cc3Cl)ccc12` belongs 99.3%.

With `COC(=O)Cc1csc2cc(OCc3ccc(C(F)(F)F)nc3C)cc(C)c12`, the inhibition is 93.8%. The same measure for `Cn1nc(C(F)(F)F)cc1COc1cc(C(F)(F)F)c2c(CC(=O)O)csc2c1`: 103%. To `CCOC(=O)Cc1csc2cc(OCc3ccc(Cl)cc3Cl)ccc12` belongs 69%; to `Cn1nc(C(F)(F)F)cc1COc1cc(Cl)c2c(CC(=O)O)csc2c1Cl`, 105%. Turning to `COCC1(C(=O)O)COc2cc(OCc3ccc(Cl)cc3Cl)ccc21` (stereo not given), the inhibition came out at 85%. The same measure for `Cc1cc(COc2cc(C)c3c(CC(=O)O)csc3c2)n(C)n1`: 95.6%; for `O=C(Cc1csc2cc(OCc3ccc(Cl)cc3Cl)ccc12)NC(CO)C(=O)O` (stereo not given): 97%. The same measure for `CC(=O)NCCc1coc2cc(OCc3ccc(Cl)cc3Cl)ccc12`: 73%; for `COC(=O)Cc1csc2c(C)c(OCc3ccc(C(F)(F)F)nc3C)cc(C)c12`: 62.8%; for `COC(=O)Cc1csc2cc(OCc3cc(C(F)(F)F)nn3C)cc(F)c12`: 99.9%. To `COC(=O)Cc1csc2cc(OCc3ccc(C(F)(F)F)nc3C)cc(Cl)c12` belongs 91.6%.

With `Cc1nc(C(F)(F)F)ccc1COc1cc(Cl)c2c(CC(=O)O)csc2c1`, the inhibition was 101%. On to `COC(=O)Cc1c(C)sc2cc(OCc3ccc(C(F)(F)F)nc3C)cc(Cl)c12`, for which the inhibition worked out at 51.5%. As to `COC(=O)C(CO)NC(=O)Cc1csc2cc(OCc3ccc(Cl)cc3Cl)ccc12` (stereo not given), the inhibition stood at 86%. To `O=C(O)C[C@@H]1COc2cc(OCc3ccc(Cl)cc3Cl)ccc21` belongs 93%; to `O=C(O)C1(CO)COc2cc(OCc3ccc(Cl)cc3Cl)ccc21` (stereo not given), 81%; to `Cc1ccc(COc2cc(C)c3c(CC(=O)O)coc3c2C)c(C)n1`, 102%. The same measure for `COC(=O)Cc1c(C)sc2cc(OCc3cc(C(F)(F)F)nn3C)cc(Cl)c12`: 99.5%; for `COC(=O)Cc1csc2c(F)c(OCc3ccc(C(F)(F)F)nc3C)cc(Cl)c12`: 88.6%; for `Cc1ccc(COc2ccc3c(CC(=O)O)csc3c2)c(C)n1`: 99%. For the compound `Cc1cc(OCc2ccc(Cl)cc2Cl)c(C)c2c1C(CC(=O)O)CO2` (stereo not given), the inhibition is 96.2%.

On to `COC(=O)Cc1csc2c(Cl)c(OCc3ccc(C(F)(F)F)nc3C)cc(Cl)c12`, for which the inhibition was 88.1%.

For `Cc1nc(C(F)(F)F)ncc1COc1cc(C)c2c(CC(=O)O)csc2c1`, the inhibition turned out to be 100%.

One may read the inhibition as the relative decrease from the control value, in per cent.

For the origin of these results see ChEMBL document CHEMBL5053468, “Aromatic ring compound as ghrelin o-acyltransferase inhibitor” (2017).
